Measurements published in patent US8865723B2, “Selective PDE4 B inhibition and improvement in cognition in subjects with brain injury” (Tetra Discovery Partners LLC, priority 2012, dated 2014).

Assays:
[1] = system: brain injury; conditions: within 30 minutes of a brain injury; cited from earlier work
[2] = system: normal uninjured brains; conditions: cited from earlier work
[3] = system: subjects suffering a brain injury; conditions: administered 1 hour after the injury; cited from earlier work
[4] = system: traumatic brain injury (TBI) rats; assay: Water maze test (acquisition and probe trial) 12 weeks after fluid-percussion brain injury; type: in vivo, Sprague Dawley rats
From the text: (§1) Sprague Dawley rats were subjected to moderate parasagittal fluid-percussion brain injury using methods described in Atkins et al, J Neurosci Res 90, 1861-71 (2012). Adult male Sprague Dawley rats (280-300 g; Charles Rivers Laboratories) were anesthetized with 3% isoflurane, 70% N2O, and 30% O2 and received a 4.8-mm craniotomy (3.8 mm posterior to bregma, 2.5 mm lateral to the midline) over the right parietal cortex. Twenty-four hours after the craniotomy, the animals were re-anesthetized (3% isoflurane, 70% N2O, and 30% O2); immobilized with pancuronium bromide (1.0 mg/kg); and mechanically ventilated with 1% isoflurane, 70% N2O, and 30% O2. When physiological measurements had stabilized, the animals received a fluid-percussion pulse (1.8-2.2 atmospheres, 14-16 msec) or sham injury with the fluid-percussion brain injury device. Blood gases, blood pH, and mean arterial blood pressure were monitored for 30 min prior to the fluid percussion brain injury or sham surgery and for up to 1 hr post-injury to maintain normal levels. Injured and sham injured rats were coded such that the investigator assessing the behavior of the animals would not know their injury status.
2-(4-(2-(5-chlorothiophen-2-yl)-5-ethyl-6-methylpyrimidin-4-yl)amino)phenyl)acetic acid (Compound 33) was dissolved in 100% dimethylsulfoxide (DMSO) at 1 mg/ml and then diluted 20 fold into 0.9% sodium chloride (saline) with 2 molar equivalents of sodium hydroxide (0.258 mM) to yield a final concentration of Compound 33 at 0.05 mg/ml in 5% DMSO saline. Rats treated with vehicle received 5% DMSO in saline. Four treatment groups were studied; TBI rats treated with vehicle, TBI rats treated with Compound 33, sham rats treated with vehicle, and sham rats treated with Compound 33. Compound 33 and vehicle were delivered by intraperitoneal injection. Compound 33 was administered at a dose of 0.3 mg/kg. […] At 12 weeks after surgery, the rats were administered either vehicle or Compound 33 only 30 minutes prior to training on the water maze test.
Twelve weeks after surgery, rats were tested for cognitive ability using the water maze test. Animals received vehicle or Compound 33 (0.3 mg/kg, i.p.) 30 min prior to water maze training. The circular pool (122 cm diameter, 60 cm deep) was filled with opaque water at 24° C. and surrounded by distinct, invariant extramaze cues. An escape platform, 9.3 cm in diameter, was submerged 1.5 cm below the water surface. Animals received four 60 s acquisition trials per day for 4 days with inter-trial intervals of 4 min. […] Path length to reach the platform, escape latency, and swim speed were analyzed with EthoVision software (Noldus Information Technology). […]

[5] = system: traumatic brain injury (TBI) rats; assay: Working memory version of the water maze task, week 14 post-surgery; type: in vivo, Sprague Dawley rats; conditions: 0.3 mg/kg 30 min prior to testing
From the text: as §1, with “status. […]” for “status.”
To assess working memory in TBI animals, a working memory version of the water maze task was used on week 14 post-surgery. […] Escape latency differences between the first location trial and subsequent match trial were measured.

[6] = 0.3 mg/kg i.p. 30 min prior to training, 4 training days, 12 weeks after surgery

Structure (SMILES): COc1ccc(C2CNC(=O)C2)cc1OC1CCCC1 (stereo not drawn) [rolipram]
- effect on brain injury [1]: exacerbates the brain injury
- learning and memory [2]: improve learning and memory

Structure (SMILES): CC(=O)CCCCn1c(=O)c2c(ncn2C)n(C)c1=O [pentoxyfilline]
- TNF-α [3]: reduced TNF-α
- outcomes after brain injury [3]: improved outcomes

Structure (SMILES): CCc1c(C)nc(-c2ccc(Cl)s2)nc1Nc1ccc(CC(=O)O)cc1 [Compound 33]
- escape latency to reach the hidden platform during acquisition [4, 6]: progressive decrease
- path length to reach the hidden platform during acquisition [4, 6]: progressive decrease
- indices of learning (escape latency and path length) on the 4th day of acquisition ([4]; 0.3 mg/kg i.p., 4th day of acquisition, versus sham animals): comparable to sham animals treated with vehicle or Compound 33
- time in the target quadrant, probe trial (retention) ([4]; 24 h after last acquisition trial, platform removed, no drug on probe day): spent less time in the target quadrant as compared to Compound 33-treated TBI animals
- working memory (escape latency difference between location and match trial) [5]: this deficit was rescued by Compound 33 treatment
